Laboratory results from US12459931B2, “Benzothiophene derivative regulator, preparation method therefor and use thereof” (Shanghai Hansoh Biomedical Co., Ltd., priority 2019, dated 2025).

What was measured:
[1] = Stability assay in liver microsome in vitro; format: in vitro ADME, Mouse
Experimental: IV. Stability Assay in Liver Microsome In Vitro
To evaluate the metabolic stability of the compounds of the present invention in liver microsome in vitro.
Formulation of the working solution of the compound: 2 μL of the stock solution of the compound was added to 998 μL of phosphate buffer, and the final concentration was 20 μM.
Formulation of the working solution of the control compound (7-hydroxycoumarin): The formulation was consistent with that of the compound. • 3.2. Formulation of the working solution of liver microsome
78.1 μL of 20 mg/mL microsome was diluted to 2.5 mL with 100 mM phosphate buffer and mixed well, and the final concentration was 0.625 mg/mL. • 3.3. Formulation of NADPH and UDPGA
33.3 mg of NADPH and 25.8 mg of UDPGA were weighed respectively, followed by the addition of 2 mL of 100 mM phosphate buffer. The final concentrations were 20 mM. • 3.4. Formulation of the channel-forming reagent (Alamethicin)
1 mg of Alamethicin was weighed, to which 200 μL of DMSO was added to obtain a 5 mg/mL solution. 10 μL of this solution was added to 990 μL of phosphate buffer (pH 7.4), and the final concentration was 50 μg/mL. • 3.5. Formulation of the reaction stop solution
Stop solution: Cold acetonitrile containing 100 ng/mL labetalol hydrochloride and 400 ng/mL tolbutamide was used as internal standards, and stored in a refrigerator at 2 to 8° C. • 3.6. Incubation procedure
400 μL of the formulated liver microsome, 25 μL of the working solution of the compound […] and 25 μL of Alamethicin (50 μg/mL) were added to a 96-well plate successively, which was then pre-incubated at 37° C. for 10 min. 50 μL of the formulated NADPH/UDPGA was added to initiate the reaction, and the plate was incubated at 37° C. The total volume of the reaction system was 500 μL. The final contents of the components were as follows:
[…] The resulting sample was centrifuged at 4000 g for 10 min, and the supernatant was collected for LC-MS/MS analysis.

[2] = system: Rats F344; assay: Pharmacodynamic model of active escape experiment in rats; format: in vivo; details: oral, dose 1 mg/kg, one hour before the test
Experimental: V. Pharmacodynamic Model of Active Escape Experiment in Rats
To evaluate the anti-schizophrenic effect of the compounds using the pharmacodynamic model of the active escape experiment in rats.
4. Formulation of the Vehicle and Compounds: • 4.1 Vehicle (0.5% CMC-Na+1% Tween80)
A certain mass (such as 1.0 g) of CMC-Na was weighed into a glass bottle, a certain volume (such as 200 mL) of purified water was added, and the resulting mixture was stirred to disperse evenly. 1% (v/v) Tween 80 was added according to the solution volume, and the resulting mixture was stirred overnight to obtain a homogeneous clear solution, which was stored at 2 to 8° C. for later use. • 4.2 Formulation of the compounds: […]
A formula amount of the compound was weighed, followed by the addition of a formula volume of 0.5% CMC-Na+1% Tween 80 solution. The compound solution was formulated before the administration, stored at 2 to 8° C., and used within 4 days.
The day before the compound screening test, a baseline test was performed. The test procedure was the same as 5.1.1 to 5.1.3, and the number of the baseline test was 20. The animals whose number of avoids reached 16 (80%) were grouped according to the number of avoids, 10 animals per group. The first group was administered with the vehicle orally, and the other groups were administered with the corresponding test compounds according to the experimental design. • 5.3 Compound screening test
The compound was administered orally (5 mL/kg) one hour before the test;
The test procedure was the same as 5.1.1 to 5.1.4, and the number of the test was 20.
The following data was collected by the software for data analysis: • Number of avoids of the animal; • Number of escape failures of the animal; • Escape latency of the animal;
All measurement data were expressed as mean±standard error (Mean±SEM), and analyzed by Graphpad 6 statistical software. The difference was considered to be significant when p<0.05.

[3] = biological target: Human Dopamine D3 Receptor (Homo sapiens (Human), UniProt P35462); assay: Radioligand-receptor binding assay, dopamine D3 receptor ([3H]-methylspiperone); details: [3H]-methylspiperone 0.5 nM, human D3 receptor membrane
Chain of Human Dopamine D3 Receptor (P35462 whole entry): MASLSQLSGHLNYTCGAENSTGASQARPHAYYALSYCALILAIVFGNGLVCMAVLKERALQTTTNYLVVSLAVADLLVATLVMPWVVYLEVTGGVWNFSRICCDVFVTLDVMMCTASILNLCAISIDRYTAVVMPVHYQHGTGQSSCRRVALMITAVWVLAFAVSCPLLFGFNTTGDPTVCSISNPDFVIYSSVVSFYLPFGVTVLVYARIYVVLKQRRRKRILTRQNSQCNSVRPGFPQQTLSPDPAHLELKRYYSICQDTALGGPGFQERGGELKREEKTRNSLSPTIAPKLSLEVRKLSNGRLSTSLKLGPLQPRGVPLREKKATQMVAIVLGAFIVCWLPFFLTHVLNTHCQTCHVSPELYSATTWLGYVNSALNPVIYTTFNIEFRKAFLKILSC
Experimental: Determination of the Binding Ability of the Compounds of the Present Invention to Dopamine D3 Receptor
The objective of this test example is to determine the affinity of the compounds for dopamine D3 receptor.
Assay buffer: 50 mM Tris-HCl pH 7.4, 10 mM MgCl2; wash solution: 50 mM Tris-HCl pH 7.4, stored at 4° C.; 0.5% PEI solution: 0.5 g PEI dissolve in 100 mL ddH2O, 4° C. storage of spare.
(§1) 5 μL of the test compounds (0.005 nM to 100 nM, 10 concentrations in total) and 100 μL of buffer were added to a 96-well assay plate. 1 μL of cell membrane and 300 μL of buffer were added to each well, and the plate was shaken at 600 rpm for 5 min. A mixed solution of 100 μL of buffer and [^3H]-methylspiperone (the final concentration was 0.5 nM) was added to each well. The plate was shaken at 600 rpm for 5 min, and incubated at 27° C. for 30 min. The […]-96 GF/B filter plate pre-incubated with 0.5% PEI for 1 h was washed twice with the buffer (1 mL/well). The cell membrane suspension was added to the […]-96 GF/B filter plate, washed 4 times, and incubated at 55° C. for 10 min. 40 μL of ULTIMA GOLD was added to each well, and liquid scintillation counting was carried out.
(§2) The CPM (Counts per minute) values were determined by TopCount. […] The 10 concentrations of the compound were from 100 nM to 0.005 nM after 3-fold dilution of the reaction system. The percent inhibition rate and ten-point concentration data were fitted to the parametric nonlinear logistic equation by using GraphPad prism to calculate the IC50 values of the compound.

[4] = biological target: 5-HT2A receptor (Homo sapiens (Human), UniProt P28223); assay: Radioligand-receptor binding assay, 5-HT2A receptor ([3H]-Ketanserin); details: [3H]-Ketanserin 2 nM, human 5-HT2A receptor membrane; read-out: 5HT-2A binding activity IC50
Chain of 5-HT2A receptor (P28223 whole entry): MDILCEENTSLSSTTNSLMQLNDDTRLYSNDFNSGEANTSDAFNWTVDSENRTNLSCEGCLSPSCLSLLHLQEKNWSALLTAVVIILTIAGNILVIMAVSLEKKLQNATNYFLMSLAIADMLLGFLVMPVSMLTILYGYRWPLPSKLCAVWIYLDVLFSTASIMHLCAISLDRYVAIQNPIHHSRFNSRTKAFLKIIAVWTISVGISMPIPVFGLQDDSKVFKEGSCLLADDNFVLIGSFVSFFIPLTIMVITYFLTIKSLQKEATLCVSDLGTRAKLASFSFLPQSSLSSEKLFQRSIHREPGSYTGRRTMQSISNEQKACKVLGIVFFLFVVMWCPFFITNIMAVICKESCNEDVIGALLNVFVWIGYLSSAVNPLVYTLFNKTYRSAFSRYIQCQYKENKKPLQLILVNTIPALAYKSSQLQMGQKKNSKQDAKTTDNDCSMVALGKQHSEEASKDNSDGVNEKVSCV
Experimental: Determination of the Binding Ability of the Compounds of the Present Invention to 5-HT2A Receptor
The objective of this test example is to determine the affinity of the compounds for 5-HT2A receptor.
Assay buffer: 50 mM Tris-HCl pH 7.4, 4 mM CaCl2); wash solution: 50 mM Tris-HCl pH 7.4, stored at 4° C.; 0.5% PEI solution: 0.5 g PEI dissolve in 100 mL ddH2O, 4° C. storage of spare.
as §1, with “plate. 1.5” for “plate. 1”, “300 L” for “300 μL”, “each well. The” for “each well, and the”, “and [^3H]-Ketanserin” for “and [^3H]-methylspiperone”, “was 2” for “was 0.5”
as §2

SMILES	IC50 [3] [nM]	IC50 [4] [nM]	further results
CN(C)C(=O)N[C@H]1CC[C@H](CCN2CCN(c3cccc(Cl)c3Cl)CC2)CC1 [Cariprazine, reference compound]			half-life at 1 μM ([1]; CD-1, liver microsomes, pH 7.4, Mouse liver microsome 0.5 mg/mL, compound 1 μM, NADPH/UDPGA, read-out: Half life (t1/2)): 1.1 h; microsomal CLint at 1 μM ([1]; CD-1, liver microsomes, pH 7.4, Mouse liver microsome, note: Slow <8.8, Rapid >48.0, read-out: Intrinsic clearance rate (CLint)): 21.1 µL/min/mg; Remaining (%, 120 min) ([1]; Mouse liver microsome, 120 min): 30.5%; CAR value [2]: 45.5%; EF [2]: 5.5%
Cc1ccc(C(=O)N[C@H]2CC[C@H](CCN3CCN(c4cccc5sccc45)CC3)CC2)o1 [Example 46, N-(Trans-4-(2-(4-(benzo[b]thiophen-4-yl)piperazin-1-yl)ethyl)cyclohexyl)-5-methylfuran-2-carboxamide]	0.6	0.91	
CCNC(=O)N[C@H]1CC[C@](F)(CCN2CCN(c3cccc4sccc34)CC2)CC1 [Example 16, 1-(Cis-4-(2-(4-(benzo[b]thiophen-4-yl)piperazin-1-yl)ethyl)-4-fluorocyclohexyl)-3-ethylurea]	0.57	2.07	
CC1(O)CN(C(=O)N[C@H]2CC[C@H](CCN3CCN(c4cccc5sccc45)CC3)CC2)C1 [Example 3, N-(Trans-4-(2-(4-(benzo[b]thiophen-4-yl)piperazin-1-yl)ethyl)cyclohexyl)-3-hydroxy-3-methylazetidine-1-carboxamide]	1.59		
CON(C)C(=O)N[C@H]1CC[C@H](CCN2CCN(c3cccc4sccc34)CC2)CC1 [Example 50, 3-(Trans-4-(2-(4-(benzo[b]thiophen-4-yl)piperazin-1-yl)ethyl)cyclohexyl)-1-methoxy-1-methylurea]	1.29	2.16	
CC(C)(O)CC(=O)N[C@H]1CC[C@H](CCN2CCN(c3cccc4sccc34)CC2)CC1 [Example 48, N-(Trans-4-(2-(4-(benzo[b]thiophen-4-yl)piperazin-1-yl)ethyl)cyclohexyl)-3-hydroxy-3-methylbutanamide]	0.36	0.83	
CN(C)C(=O)NC1CCC(CCN2CCN(c3cccc4sccc34)CC2)CC1F (stereo not shown) [Example 23, 3-(4-(2-(4-(Benzo[b]thiophen-4-yl)piperazin-1-yl)ethyl)-2-fluorocyclohexyl)-1,1-dimethylurea]	2.69	6.45	
COC1(C)CN(C(=O)N[C@H]2CC[C@H](CCN3CCN(c4cccc5sccc45)CC3)CC2)C1 [Example 4, N-(Trans-4-(2-(4-(benzo[b]thiophen-4-yl)piperazin-1-yl)ethyl)cyclohexyl)-3-methoxy-3-methylazetidine-1-carboxamide]	1.52	0.26	
CN(C)C(=O)N[C@H]1CC[C@](F)(CCN2CCN(c3cccc4sccc34)CC2)CC1 [Example 15, 3-(Cis-4-(2-(4-(benzo[b]thiophen-4-yl)piperazin-1-yl)ethyl)-4-fluorocyclohexyl)-1,1-dimethylurea]	4.25		
O=C(NC1CCC(CCN2CCN(c3cccc4sccc34)CC2)CC1F)c1ccco1 (stereo not shown) [Example 51, N-(4-(2-(4-(Benzo[b]thiophen-4-yl)piperazin-1-yl)ethyl)-2-fluorocyclohexyl)furan-2-carboxamide]	0.76	0.9	
Fc1cnc(N[C@H]2CC[C@H](CCN3CCN(c4cccc5sccc45)CC3)CC2)nc1 [Example 49, N-(Trans-4-(2-(4-(benzo[b]thiophen-4-yl)piperazin-1-yl)ethyl)cyclohexyl)-5-fluoropyrimidin-2-amine]	2.43	0.34	
O=C(N[C@H]1CC[C@H](CCN2CCN(c3cccc4sccc34)CC2)CC1)N1CC(F)(F)C1 [Example 2, N-(Trans-4-(2-(4-(benzo[b]thiophen-4-yl)piperazin-1-yl)ethyl)cyclohexyl)-3,3-difluoro azetidine-1-carboxamide]	0.76	3.4	
COCC(=O)N[C@H]1CC[C@H](CCN2CCN(c3cccc4sccc34)CC2)CC1 [Example 47, N-(Trans-4-(2-(4-(benzo[b]thiophen-4-yl)piperazin-1-yl)ethyl)cyclohexyl)-2-methoxyacetamide]	0.47	0.96	
O=C(N[C@H]1CC[C@H](CCN2CCN(c3cccc4sccc34)CC2)CC1)c1ccco1 [Example 45, N-(Trans-4-(2-(4-(benzo[b]thiophen-4-yl)piperazin-1-yl)ethyl)cyclohexyl)furan-2-carboxamide]	0.12	0.63	
C[C@@H]1CN(c2cccc3sccc23)CCN1CC[C@H]1CC[C@H](Nc2ncc(C#N)cn2)CC1 [Example 44, 2-((Trans-4-(2-((R)-4-(benzo[b]thiophen-4-yl)-2-methylpiperazin-1-yl)ethyl)cyclohexyl)amino)pyrimidine-5-carbonitrile]	1.58	2.59	
